From ChEMBL document CHEMBL3867475, “Discovery of furo[2,3-d][1,3]thiazinamines as beta amyloid cleaving enzyme-1 (BACE1) inhibitors” (Bioorg Med Chem Lett, 2016)

What was measured:
[1] = Chemical stability of compound in aqueous condition at pH 1 to 10 at 40 degC measured up to 24 hrs; type: physicochemical; settings: buffer, pH 1, 24 h
[2] = Permeability from apical side to basolateral side in human Caco2 cells; type: ADME, cell-based; settings: Caco-2, read-out: permeability
[3] = Permeability from basolateral side to apical side in human Caco2 cells; type: ADME, cell-based; settings: Caco-2, read-out: permeability

## NC1=N[C@@]2(c3cc(NC(=O)c4ncccc4F)ccc3F)OCC[C@H]2CS1
[1]
  Stability: Stable

## NC1=N[C@@]2(c3cc(NC(=O)c4ccc(Cl)cn4)ccc3F)OCC[C@H]2CS1
[1]
  Stability: Stable
[2]
  Papp A→B: 17.7 ×10⁻⁶ cm/s
[3]
  Papp B→A: 24.4 ×10⁻⁶ cm/s

## NC1=N[C@@]2(c3cc(NC(=O)c4ccccn4)ccc3F)OCC[C@H]2CS1
[1]
  Stability: Stable

## NC1=N[C@@]2(c3cc(NC(=O)c4ncc(Cl)cc4Cl)ccc3F)OCC[C@H]2CS1
[1]
  Stability: Stable

## NC1=N[C@@]2(c3cc(NC(=O)c4ccc(OC(F)F)cn4)ccc3F)OCC[C@H]2CS1
[1]
  Stability: Stable

## NC1=N[C@@]2(c3cc(NC(=O)c4ccc(Br)cn4)ccc3F)OCC[C@H]2CS1
[1]
  Stability: Stable

## NC1=N[C@@]2(c3cc(NC(=O)c4ccc(F)cn4)ccc3F)OCC[C@H]2CS1
[1]
  Stability: Stable

## N#Cc1ccc(C(=O)Nc2ccc(F)c([C@@]34N=C(N)SC[C@@H]3CCO4)c2)nc1
[1]
  Stability: Stable
[2]
  Papp A→B: 16.4 ×10⁻⁶ cm/s
[3]
  Papp B→A: 54.2 ×10⁻⁶ cm/s

## COc1cnc(C(=O)Nc2ccc(F)c([C@@]34N=C(N)SC[C@@H]3CCO4)c2)cn1
[1]
  Stability: Stable
